Literature values as cited in patent US9848955B2, “Resorbable pouches for implantable medical devices” (TYRX Inc., priority 2006, dated 2017).

System: myofibroblast formation
Conditions: animal studies of capsular contracture with breast implants [Ajmal et al. (2003)]

## O=S(=O)([O-])CCS.[Na+] [Mesna, sodium 2-mercaptoethane sulfonate]
  myofibroblast formation: diminish myofibroblast formation
